# Laboratory results published in US6613762B2, “Gambogic acid, analogs and derivatives as activators of caspases and inducers of apoptosis” (Cytovia, Inc., priority 1999, dated 2003).
# Where two headings read alike, the source gives them in different places.
# Legend:
# [1] = tested on: poly(ADP)ribose polymerase (PARP) cleavage, T47D cells; experiment: PARP cleavage western blot, T47D cells; type: cell-based, human; settings: 1 μM staurosporine, 2 h and 4 h (FIG. 5C)
# Method: (§1) Cleavage of the enzyme poly(ADP)ribose polymerase (PARP) by caspase-3 and related proteases is considered to be one of the molecular hallmarks of caspase-mediated apoptosis. Therefore, the ability of gambogic acid to induce PARP cleavage in four different human tumor cell lines (Jurkat cells, HL-60 cells, T47D cells and PC3 cells) was determined.
# (§2) Cells were cultured in complete growth medium containing 10% FBS and treated with gambogic acid at concentrations of 2.5 μM or 5 μM for 2 to 4 h. Control cultures were treated with a drug vehicle (DMSO), or the well-characterized apoptosis inducer, staurosporine. At the end of the apoptosis induction period, the cells were harvested, washed once with PBS, quick-frozen on dry ice, and stored at −80° C. The cells were then lysed in a standard immunoblotting lysis buffer and samples of the lysates were electrophoresed on 4% to 20% gradient polyacrylamide gels. The proteins in the gels were then transferred to PVDF membranes and probed with a commercially-available rabbit polyclonal antibody to PARP.
# [2] = tested on: poly(ADP)ribose polymerase (PARP) cleavage, PC3 cells; experiment: PARP cleavage western blot, PC3 cells; type: cell-based, human; settings: 1 μM staurosporine, 2 h and 4 h (FIG. 5D)
# Method: as §1, §2
# caspase cascade = experiment: Caspase cascade activation assay (Example 90), MRC-5; type: cell-based, human; settings: human
# Method: (§3) Human breast cancer cell lines T-47D and ZR-75-1, human prostate cancer cell line PC-3, human leukemia cancer cell line HL-60 and human non-transformed fibroblast cell line MRC-5 cells were grown according to media component mixtures designated by The American Type Culture Collection+10% FCS (Life Technologies, Inc.), in a 5% CO2-95% humidity incubator at 37° C. T-47D, ZR-75-1 and PC-3 cells were maintained at a cell density between 30 and 80% confluency and for HL-60 at a cell density of 0.1 to 0.6×10^6 cells/m. Cells were harvested at 600× g and resuspended at 0.65×10^6 cells/ml into appropriate media +10% FCS. […] The samples were mixed by agitation and incubated at room temperature.
# (§4) The EC50 (nM) was determined by a sigmoidal dose-response calculation (Prism 2.0, GraphPad Software Inc.).
# [3] = tested on: caspase cascade, human non-transformed fibroblast cell line MRC-5; experiment: as above; type: cell-based; settings: ratio of net RFU of test compound to control; 24 h incubation, 0.16 to 10 μM
# Method: as §3, §4
# [4] = tested on: caspase cascade, human prostate cancer cell line PC-3; experiment: Caspase cascade activation assay (Example 90), PC-3; type: cell-based; settings: for PC-3 Ratio (caspase activity): ratio of net RFU of test compound to control, 24 h incubation, 0.16 to 10 μM
# Method: as §3, §4
# [5] = tested on: caspase cascade, human breast cancer cell line ZR-75-1; experiment: Caspase cascade activation assay (Example 90), ZR-75-1; type: cell-based; settings: ratio of net RFU of test compound to control; 24 h incubation, 0.16 to 10 μM
# Method: as §3, §4
# [6] = Inhibition of cell proliferation (GI50) and cell death (LC50), MRC-5; type: cell-based; settings: human; MRC-5, 48 h; read-out: LC50 (dose for 50% cell death)
# Method: T47D, ZR-75-1, PC-3, human prostate cancer cell line DU-145, human non-small cell lung cancer cell line A-549, human small cell lung cancer cell line SHP-77, HL-60 and MRC-5 cells were grown and harvested as in Example 90. […] The samples were mixed by agitation and incubated at 37° C. for 2-4 h in a 5% CO2-95% humidity incubator. […] This determines the possible background absorbance of the test compounds. No absorbance for gambogic acid or its analogs or derivatives was found at 490 nm. After the 2-4 h incubation, the samples were read for absorbance as above (ATest).
# Baseline for GI50 (dose for 50% inhibition of cell proliferation) and LC50 (dose for 50% cell death) of initial cell numbers was determined by adding an aliquot of 90 μl of cells or 90 μl of media, respectively, to wells of a 96-well microtiter plate containing 10 μl of a 10% DMSO in RPMI-1640 media solution. […] The samples were mixed by agitation and incubated at 37° C. for 2-4 h in a 5% CO2-95% humidity incubator. Absorbance was read as above, (AT=0) defining absorbance for initial cell number used as baseline in GI50 determinations and (Amin) defining absorbance for media alone used as baseline in LC50 determinations.
# GI50 (dose for 50% inhibition of cell proliferation)
# LC50 (dose for 50% cell death)
# 50=100×[(ATest−Amin)/(AT=0−Amin)]
# [7] = tested on: caspase cascade, human breast cancer cell line T-47D; experiment: Caspase cascade activation assay (Example 90), T-47D; type: cell-based; settings: ratio of net RFU of test compound to control; 24 h incubation, 0.16 to 10 μM
# Method: as §3, §4
# [8] = tested on: caspase cascade, human leukemia cancer cell line HL-60; experiment: Caspase cascade activation assay (Example 90), HL-60; type: cell-based; settings: ratio of net RFU of test compound to control; 24 h incubation, 0.16 to 10 μM
# Method: as §3, §4
SMILES,PARP cleavage [1],PARP cleavage [2],"EC50 at 24 h (caspase cascade; 24 h incubation, sigmoidal dose-response, read-out: MRC-5 EC50 (caspase activation potency))",MRC-5 Ratio (caspase activity) [3],"EC50 ([4]; Homo sapiens, 24 h, read-out: PC-3 EC50 (caspase activation potency))",PC-3 Ratio (caspase activity) [4],ZR-75-1 Ratio (caspase activity) [5],CC50 at 48 h [6],T-47D Ratio (caspase activity) [7],HL-60 Ratio (caspase activity) [8],EC50 at 24 h (caspase cascade)
"CN[C@@H]1C[C@H]2O[C@@](C)([C@@H]1OC)n1c3ccccc3c3c4c(c5c6ccccc6n2c5c31)C(=O)NC4 [staurosporine, reference compound]",no cleavage of PARP,no cleavage of PARP,–,–,–,–,–,–,–,–,–
"COC(=O)/C(C)=C\CC12OC(C)(C)C3CC(C=C4C(=O)c5c(O)c6c(c(CC=C(C)C)c5OC431)OC(C)(CCC=C(C)C)C=C6)C2=O (stereo not drawn) [Example 4, Methyl Gambogate]",–,–,501 nM,27.8,1330 nM,3.9,14.9,500 nM,16.8,7.7,–
"COc1c2c(c(CC=C(C)C)c3c1C(=O)C1=CC4CC5C(C)(C)OC(C/C=C(/C)C(=O)N6CCCCC6)(C4=O)C15O3)OC(C)(CCC=C(C)C)C=C2 (stereo not drawn) [Example 7, 6-Methoxy-gambogyl Piperidine]",–,–,–,9.4,–,2.3,13.4,–,14.4,–,1200 nM
